Assay results published in patent US20220249525A1, “Fatty Acid Compounds for Prevention and Treatment of Neurodegenerative Disorders” (T OMEGA AS, priority 2019, published 2022).
Counter-ions that a name gives are not always drawn.

What was measured:
HuH-7 cells [1] = assay: WST-1 cell viability assay in HuH-7 cells; format: cell-based; details: 2 days
Experimental: (§1) The fatty acids (FAs) TTA, tr-TTA, N-TTA, tr-N-TTA and (PA) were complexed with FBS following the same procedure, differing only in final stock concentration, due to variation in solubility. Approximately 0.07 g of FA was weighed in a 10 ml sterile serum tube (BD Vacutainer®, catalog no. 368430) and dissolved in sterile filtrated 0.1 M sodium hydroxide (NaOH) of a volume giving 25 mM FA, controls without FA were made, containing only NaOH and FBS. A syringe (Sterican®, catalog no. 4657577) was pierced through the rubber cap of the serum tube, and the tube was placed in an 80° C. water bath until the FAs were dissolved. Each FA-solution was then diluted in inactivated FBS to stock concentration 1 mM (N-TTA, tr-N-TTA), and 2 mM by adding the FA to a volume of 100% FBS after heating the FBS to 45° C. in a water bath. The transfer of FA to FBS had to be executed controlled and swiftly to avoid the formation of precipitates. If any precipitates in the solution were visible, the FA and a new volume of FBS were reheated, and the procedure performed again. Following successful complexation, the stock solutions were stored at −20° C. in 1 ml aliquots (CryoPure tube, Sarstedt AG & Co, Nümbrecht, Germany).
(§2) The WST-1 cell proliferation assay was performed using the kit from Roche (table 4.2.) and its accompanying procedure (version 16, February 2011) (134). The number of cells seeded to each well in the 96-well plates (Corning Inc., catalog no. 353072) varied depending on the treatment time and cell type (table 3.).
(§3) Cell suspension and medium were then transferred to each well in a volume of 100 μl in total. Subsequently, the plates were incubated for 24 hours to make the cells settle. The next day, 100 μl with FA complexed with FBS or diluted in DMSO was added to row A or B in the 96-well plate to give a defined concentration. The solution was then mixed with a pipette, and 100 μl of the medium with FA was transferred to the next well in the same column, mixed by pipetting up and down at least five times before 100 μl was transferred again to the next well in the column. This procedure was repeated until the second last, or last well in each column was reached, making a series of two-fold dilution of the FAs in the cell medium. Two parallels were performed for every treatment per run. After the addition of FAs, the plates were incubated for 24-96 hours depending on the length of the treatment.
(§4) Following the FA-treatment, the cells were studied under a microscope to ensure that visual observations matched the measured absorbance and cell activity in the assay. Subsequently, 10 μl WST-1 reagent was added to each well, and the plates were incubated for 3 hours. Due to high activity in the HuH-7 cell line, the WST-1 reagent was diluted 1:1 with PBS. Before the measurement of absorbance, the plates were placed on a shaker for 1 minute ensuring thoroughly mixing of the wells. The plates were then put straight into the spectrophotometer (SpectraMax Plus 384 Microplate Reader, Molecular Devices Corporation, San Jose, Calif., USA) to perform the measurements. The accompanying software was used (SoftMax Pro, Molecular Devices Corporation, San Jose, Calif., USA) to obtain the results. The absorbance of the samples was measured at 450 nm, and the reference wavelength was set to 650 nm. For each well, the measured absorption at 650 nm was subtracted from the absorption at 450 nm. The measured absorbance for the treated cells was then compared to the controls (blank) containing only cells and growth medium.

SH-SY5Y cells [2] = assay: WST-1 cell viability assay in SH-SY5Y cells; format: cell-based; details: 4 days
Experimental: as §1, §2, §3
as §4, with “The accompanying software was used (SoftMax Pro, Molecular Devices Corporation, San Jose, Calif., USA) to obtain the results.” left out

[3] = test system: MOLM-13 human acute leukemia cells; assay: WST-1 viability of MOLM-13 cells; format: cell-based; details: for Abs450 nm (WST-1 viability): complexed to BSA
Experimental: MOLM-13 suspension cells were diluted and added to 96-well plates (15.000 cells/well).
The modified fatty acids TTA, tr-TTA, TDG (TGH) and tr-TDG (tr-TGH) were complexed to bovine serum albumin (BSA), and 10-fold dilutions of the fatty acids or BSA control were added to the wells in duplicate. Two plates were run in parallel, and WST-1 was added to the cells after 48 (plate 1) and 72 hours (plate 2). Absorbance at 450 nm measured to assess viability of the cells.

[4] = 4 week high-fat diet study, body weight, adipose tissue, plasma glucose and cholesterol; format: in vivo, C57BL/6 mice; details: mice, N-TTA 750 mg/kg or triple-N-TTA 350 mg/kg body weight, 4 weeks
Experimental: This animal study was conducted according to the Guidelines for the Care and Use of Experimental Animals, and the protocol was approved by the Norwegian Food Authorities. 7 to 8-weeks old male C57BL/6 mice, were obtained from Janvier Labs. After one week of acclimatization, they were divided into 3 groups of 7 animals. One group was fed a control high-fat (25 w/v) diet while the two remaining groups were fed a high-fat diet supplemented with either N-TTA (750 mg/kg body weight) or triple-N-TTA (350 mg/kg body weight). After 4 weeks of feeding, the mice were anaesthetized with Isofluorane (Forane, Abbot Laboratories Ltd, Illinois, USA) inhalation under fasting conditions, and blood and liver samples were collected. […]
Glucose and lipids in plasma was measured on the Hitachi 917 system (Roche Diagnostics, GmbH, Mannheim, Germany) using kits from Roche Diagnostics or DiaSys.

HuH-7 cells [5] = assay: Gene expression (qPCR) in HuH-7 cells treated with fatty acids; format: cell-based
Experimental: (§5) Cells from both cell lines were obtained and counted as previously mentioned. After cell counting, the cells were seeded to 6-well plates (Corning Inc., catalog no. 353046) with a density dependent on total treatment time and cell line. The cells were seeded in 3-4 ml medium and placed in the incubator for approximately 24 hours for the cells to settle. Following the 24 hours, the FAs were thawed in room temperature, the cell medium was aspirated off, and a new, exact volume was added to each well, depending on the final concentration of FA or control. Before the addition of FAs, the FA-solutions were mixed by pipetting up and down several times. The FAs were then added with an exact volume to the wells giving a total volume of 3 ml or 4 ml depending on treatment time, yielding the target concentration of FA in well. After the addition of FA to one well, the solution was mixed by carefully rotating the 6-well plate. The same procedure was followed for all the wells, differing only in FA or control added, and the ratio of medium and FA depending on treatment dose. During cell treatment, the plates were incubated under the same conditions as previously mentioned. PBS was placed between the wells to reduce liquid-loss due to evaporation. After treatment and incubation for 24-96 hours, the procedure of RNA purification was followed.
(§6) Purification of total RNA from treated HuH-7- and SH-SY5Y cells was done following the protocol “Purification of Total RNA from Animal Cells using Spin Technology” described in the RNeasy Mini Handbook (fourth edition, June 2012) with some modifications. The RNeasy Mini Kit was used.
(§7) Frozen RNA samples were thawed on ice or used directly after the RNA purification protocols. All samples from the cell lines were diluted with nuclease-free water to 50 ng/μl, and all samples from brain tissue were diluted to 200 ng/μl prior to cDNA synthesis. UHRR and UMRR were initially at 50 ng/μ1 (table 4.3.). The reactants (table 4.6.) used in the RT-mix were thawed on ice and mixed following the protocol “High Capacity cDNA Reverse Transcription Kits” (Applied Biosystems, June 2010) (153). From the master mix containing the total volume of the mixed reactants, 10 μl was added to each sample tube placed on ice already containing 10 μl of the diluted RNA. The samples with a total volume of 20 μl were mixed by pipetting up and down several times. In addition, samples without reverse transcriptase (−RT) were made, using nuclease-free water to replace the RT volume. The tubes were placed on ice until they were loaded to the GeneAmp* PCR system 2700 (Applied Biosystems, Foster City, Calif., USA) and the program described in table 4.7. was used. After the procedure, all samples were diluted to 10 ng/μl by the addition of nuclease-free water and placed for storage at 4° C. until further use.
The mix for the samples (and standard curves) was made using TaqMan Gene Expression Master Mix (table 4.8.), probes specific for the genes in question, and nuclease-free water. −RT and NTC samples were always used in the experiments. The master mix for each gene was made according to table 4.8. and added to tubes together with the cDNA. The tubes were vortexed and centrifuged briefly before the samples were added to a 384-well plate (Sarstedt AG & CO, catalog no. 72.1984.202) with the use of a pipette. For every sample, three parallels of 9 μl were used. After the addition of all the samples to the plate, a plastic cover (Sarsted AG & CO, catalog no. 95.1994) was used to seal the plate before centrifuging it for 2 minutes at 700 g. The prepared samples were placed in the PCR cycler (ABI PRISM 7900HT Sequence Detection System, Applied Biosystems) for quantification, using the 9600 Emulation Thermal Cycler Protocol (table 4.9.) in the software SDS 2.3 (Applied Biosystems, Foster City, Calif., USA).
(§8) When performing the qPCR reactions, all samples were analyzed in triplicates, and the mean value was used in further analysis. […]

SH-SY5Y cells [6] = assay: Gene expression (qPCR) in SH-SY5Y cells treated with fatty acids; format: cell-based
Experimental: as §5, §6, §7
The mix for the samples (and standard curves) was made using TaqMan Gene Expression Master Mix (table 4.8.), probes specific for the genes in question, and nuclease-free water. −RT and NTC samples were always used in the experiments. […] The prepared samples were placed in the PCR cycler (ABI PRISM 7900HT Sequence Detection System, Applied Biosystems) for quantification, using the 9600 Emulation Thermal Cycler Protocol (table 4.9.) in the software SDS 2.3 (Applied Biosystems, Foster City, Calif., USA).
as §8

[7] = 25 μM dissolved in DMSO, 4 days
[8] = 125 μM complexed with FBS, 24 hours

Q: With CC#CCCCCCCCCCCCNCC(=O)O [tr-N-TTA, Tetradec-12-yn-1-ylglycine hydrochloride] as the compound, how does the “WST-1 activity compared to untreated cells” value (HuH-7 cells [1]; 16 μM, complexed with FBS) read?
A: 109%

Q: And the “WST-1 activity compared to no treatment” value (HuH-7 cells [1]; 500 μM)?
A: ~90%

Q: What about the “WST-1 activity compared to untreated cells” value (HuH-7 cells [1]; all concentrations) of the same compound?
A: around 100%

Q: And the “WST-1 activity compared to untreated cells” value (SH-SY5Y cells [2]; 500 μM)?
A: 84%

Q: What about the “WST-1 activity compared to untreated cells” value (SH-SY5Y cells [2]; all concentrations except 500 μM) of the same compound?
A: ~100%

Q: And the “Abs450 nm (WST-1 viability)” value ([3]; 48 hours, 0.0625 mM)?
A: 0.4964

Q: And the “Abs450 nm (WST-1 viability)” value ([3]; 48 hours, 0.125 mM)?
A: 0.1452

Q: And the “Abs450 nm (WST-1 viability)” value ([3]; 48 hours, 0.25 mM)?
A: 0.1679

Q: And the “Abs450 nm (WST-1 viability)” value ([3]; 48 hours, 0.5 mM)?
A: 0.2177

Q: What about the “Abs450 nm (WST-1 viability)” value ([3]; 48 hours, 1 mM) of the same compound?
A: 0.2833

Q: What about the “Abs450 nm (WST-1 viability)” value ([3]; 48 hours, 2 mM) of the same compound?
A: 0.5009

Q: And the “Abs450 nm (WST-1 viability)” value ([3]; 72 hours, 0.03125 mM)?
A: 0.3769

Q: And the “Abs450 nm (WST-1 viability)” value ([3]; 72 hours, 0.0625 mM)?
A: 0.4452

Q: What about the “Abs450 nm (WST-1 viability)” value ([3]; 72 hours, 0.125 mM) of the same compound?
A: 0.13

Q: And the “Abs450 nm (WST-1 viability)” value ([3]; 72 hours, 0.25 mM)?
A: 0.1384

Q: And the “Abs450 nm (WST-1 viability)” value ([3]; 72 hours, 0.5 mM)?
A: 0.1964

Q: And the “Abs450 nm (WST-1 viability)” value ([3]; 72 hours, 1 mM)?
A: 0.366

Q: And the “Abs450 nm (WST-1 viability)” value ([3]; 72 hours, 2 mM)?
A: 0.426

Q: And the “toxicity to leukemic cells” value ([3]; MOLM-13, compared with TTA and tr-TTA)?
A: toxic to leukemic cells at a lower concentration than TTA and tr-TTA

Q: And the “LDL cholesterol (plasma)” value [4]?
A: reduced

Q: What about the “body weight gain vs high-fat control diet” value [4] of the same compound?
A: significantly lower

Q: What about the “cholesterol esters (plasma)” value [4] of the same compound?
A: reduced

Q: And the “epididymal white adipose tissue depot” value [4]?
A: reduced in size

Q: And the “free cholesterol (plasma)” value [4]?
A: reduced

Q: What about the “perirenal white adipose tissue depot” value [4] of the same compound?
A: reduced in size

Q: What about the “total cholesterol (plasma)” value [4] of the same compound?
A: reduced

Q: And the “blood glucose vs high-fat control diet” value ([4]; fasting)?
A: significantly lower

Q: Which “WST-1 activity compared to untreated cells” value (HuH-7 cells [1]; 62.5 μM, complexed with FBS) does the source give for CCCCCCCCCCCCCCCC(=O)O [PA] here?
A: ~150%

Q: What about the “relative expression of CPT-2 compared to control” value (HuH-7 cells [5]; [7]) of the same compound?
A: 0.65

Q: What about the “relative expression of UCP3 compared to untreated cells” value (HuH-7 cells [5]; [7]) of the same compound?
A: approximately 0.5

Q: What about the “increase in CPT-2 expression relative to control” value (HuH-7 cells [5]; 125 μM complexed with FBS, 1 day) of the same compound?
A: 1.5 fold

Q: And the “increase in CPT-2 expression relative to control” value (HuH-7 cells [5]; 125 μM complexed with FBS, 2 days)?
A: did not result in increased expression

Q: What about the “increase in CPT-2 expression relative to control” value (HuH-7 cells [5]; 125 μM complexed with FBS, 4 days) of the same compound?
A: did not result in increased expression

Q: And the “increase in relative expression of UCP3” value (HuH-7 cells [5]; 125 μM complexed with FBS, all treatment periods (1, 2, 4 days))?
A: did not induce any changes

Q: And the “relative gene expression of CPT-2 vs control” value (SH-SY5Y cells [6]; [8])?
A: No change

Q: What about the “relative gene expression of CYCS vs control” value (SH-SY5Y cells [6]; [8]) of the same compound?
A: No change

Q: And the “relative gene expression of TFAM vs control” value (SH-SY5Y cells [6]; [8])?
A: No change

Q: And the “relative gene expression of UCP3 vs control” value (SH-SY5Y cells [6]; [8])?
A: No change

Q: What about the “CYCS gene expression vs FBS-control” value (SH-SY5Y cells [6]; additional treatments, 4 days, reference 18 S) of the same compound?
A: small decrease

Q: What about the WST-1 activity (SH-SY5Y cells [2]; 500 μM) of the same compound?
A: the same as the control

Q: And the WST-1 activity (SH-SY5Y cells [2]; concentrations up to 250 μM)?
A: stimulated activity
